The source of these data is patent US9943497B2, “Pharmaceutical composition for preventing or treating pulmonary fibrosis” (GACHON UNIVERSITY OF INDUSTRY-ACADEMIC COOPERATION …, priority 2013, dated 2018).

Type in all cases: in vivo
Assay [1] relates to pulmonary fibrosis induced by administration of Bleomycin (BLM). As to the kind of experiment: Histological examination (H&E and Masson-trichrome staining, Image J) of lung tissue in pulmonary fibrosis-induced animals. The conditions noted are these: BLM-treated C57BL/6 mice; oral, every day; SFN 50 μg/kg, Met 25 mg/kg, singly or together; lung tissue at 28 days; vs BLM alone. As to the method: In detail, C57BL/6 mice were administered with combination of BLM, SFN and metformin (Met) which is one of BG agents, and control groups and experimental groups were prepared: a control group that was orally administered with sterile physiological saline (SA) and orally administered with distilled water; an experimental group (BLM) that was administered with BLM and orally administered with distilled water; an experimental group (BLM+SFN) that was administered with BLM and orally administered with 50 μg/kg of SFN; an experimental group (BLM+MET) that was administered with BLM and orally administered with […] of Met; and an experimental group (BLM+SFN+MET) that was administered with BLM and orally administered with 50 μg/kg of SFN and 25 mg/kg of Met. […] The fixed lung tissues were stained by the H&E staining method and the Masson-trichrome staining method, and the stained lung tissues were evaluated by Image J assay to assess and compare lung damage and lung fibrosis (FIGS. 1a to 1c).

Assay [2] has as its system TGF-β1 (transforming growth factor β1). Kind of assay: Western blot analysis for TGF-β1 in lung tissue and serum samples. To be noted: BLM-treated C57BL/6 mice; oral, every day; SFN 50 μg/kg, Met 25 mg/kg, singly or together; lung tissue and serum at 28 days; vs BLM alone. A general note: In western blotting, separated proteins are transferred to a membrane and probed.
Experimental: (§1) In detail, C57BL/6 mice were administered with combination of BLM, SFN and metformin (Met) which is one of BG agents, and control groups and experimental groups were prepared: a control group that was orally administered with sterile physiological saline (SA) and orally administered with distilled water; an experimental group (BLM) that was administered with BLM and orally administered with distilled water; an experimental group (BLM+SFN) that was administered with BLM and orally administered with 50 μg/kg of SFN; an experimental group (BLM+MET) that was administered with BLM and orally administered with 25 mg/hg of Met; and an experimental group (BLM+SFN+MET) that was administered with BLM and orally administered with 50 μg/kg of SFN and 25 mg/kg of Met. At this time, C57BL/6 mice were administered with 2.5 unit of BLM by intratracheal injection under anesthesia at the experiment initiation day and 14 days, and the mice were administered with SFN and Met every day during the experimental period from the next day after the first administration of BLM, and the mice of the control group and experimental groups were raised for 28 days after the experiment initiation day.
The animal models of the control group and the experimental groups that were prepared in Example 1 and raised for 28 days were sacrificed. The lung tissues and serum samples were obtained from these animal models. […]
For assay [3], the system named is fibronectin. Kind of assay: Western blot analysis for fibronectin in lung tissue and serum samples. To be noted: BLM-treated C57BL/6 mice; oral, every day; SFN 50 μg/kg, Met 25 mg/kg, singly or together; lung tissue and serum at 28 days; vs BLM alone.
Experimental: as §1
(§2) The lung tissues and serum samples were obtained from these animal models. […]
In assay [4] the test system is AGE (advanced glycation end products). Kind of assay: Western blot analysis, Ponceau staining and ELISA for AGE in lung tissue and serum samples. To be noted: BLM-treated C57BL/6 mice; oral, every day; SFN 50 μg/kg, Met 25 mg/kg, singly or together; lung tissue and serum at 28 days; vs BLM alone.
Experimental: as §1, §2

As to `CN(C)C(=N)N=C(N)N` [Met, metformin], the “level of fibrous tissue (damaged fibrous regions, H&E and Masson-trichrome staining)” value in assay [1] is “slightly reduced”. The “TGF-β1 levels (Western blot)” value in assay [2] is “reduced TGF-β1 levels”. The “fibronectin levels (Western blot)” value in assay [3] is on record as “reduced fibronectin levels”. Further, the “AGE level (Western blot, ELISA)” value in assay [4] is “slightly reduced AGE level”.
On the same counts, the results for `C[S+]([O-])CCCCN=C=S` (centres unmarked) [SFN, sulforaphane] are “statistically significant reduction”, “reduced TGF-β1 levels”, “reduced fibronectin levels” and “reduced”.
